Entries after “also recorded” stand apart in the source; their conditions may differ. Peptide text beside a SMILES is read from it. * marks the point of attachment. Cbz = O=C(OCc1ccccc1)*
Legend:
[1] = system: human cells; assay: 18O2-GASSP labelling of human cells, untargeted polar metabolomics, with or without IOX1; type: cell-based; details: 18O labelling of the metabolite in cells treated with IOX1 (dioxygenase inhibitor), 24 hours
Protocol: To map the molecular fate of O2 in metabolic pathways in living cells, GASSP was used to carry out ^18O2 labelling in cell lines of different tissue origins at ^18O2 concentrations that represented physiological (3%), hypoxic (1%), and severely hypoxic (0.2%) oxygen tensions found in tissues and tumours^7. At the end of each run, polar metabolites were extracted and untargeted polar metabolomics using liquid chromatography-high resolution mass spectrometry (LC-MS) were carried out to identify metabolites labeled with ^18O.
A list of unique features identified by untargeted metabolomics that were >0.25% (natural abundance of ^18O is 0.2%) labelled by ^18O atoms in each cell line at each oxygen tension was generated. In addition, background signal was controlled by requiring that ^18O labeled peaks had to have a signal that was two-fold greater than naturally occurring isotopes found in non-labelled (^16O) metabolite cell extracts. To determine the proportion of unique ^18O labelled features that were due to dioxygenase activity, cells were treated with a pan-dioxygenase inhibitor (IOX1) at concentrations that inhibit iron-dependent dioxygenases, such as the HIF1α prolyl hydroxylases (FIGS. 5E-5F) and identified ^18O labelled polar metabolites. This list of ^18O metabolites was generated by identifying all features in the unlabelled samples, filtering these features against blank samples to remove background peaks, and calculating the fractional ^18O labelling with the assumption that a metabolite would have no more than three oxygen atoms labelled, followed by manual curation of labelled features (FIG. 1B and FIG. 5G). […] These ^18O-labelled features were termed the oxy-metabolome.
To determine the identities of the labeled metabolites, the list of ^18O labelled features was annotated to their corresponding unlabelled metabolites using retention time matching, tandem mass spectrometry (MS2) fragmentation patterns, and database searching.
(§1) All steps involved in setting up labelling with ^18O2 were performed at room temperature and inside a chemical fume hood. The procedure may vary depending on the type and number of tissue culture plates in the chamber and the amount of media in the plates. Users must test the system by using ^16O2:CO2:N2 or other unlabelled gases to optimize conditions for their needs and avoid consumption of costly labelled gases. Cells were treated with or without 5 μM MG132, 500 μM IOX1, 250 μM DFO, or 70 μM ascorbate, before placing tissue culture plates into the modular incubator chamber (MIC) containing a wireless oxygen sensor and a 15 cm dish of water to maintain humidity. Next, the clamps were closed to form an air-tight seal between the lid and platform of the MIC. […] N2 flushing was repeated for a total of three times, or until the sensor in the chamber stabilized at 0% O2 for 10 minutes.

[2] = system: MIAPACA2 cells; assay: 13C9-Tyr tracing in MIAPACA2 cells with the indicated reagents; type: cell-based, human
Excerpt: 4-HMA biosynthesis has only been described in some bacteria and in rabbits. […] The production of 4-HPPA occurs in the first step of tyrosine (Tyr) catabolism via tyrosine transaminase (TAT). In rabbits, 4-HMA was proposed to be synthesized from the degradation of tyramine and octopamine by dopamine β-hydroxylase (Dbh) and monoamine oxidase (Mao) (FIG. 9A)^13. Tyramine is also a Tyr-derived metabolite. Therefore, all known substrates required to generate 4-HMA are derived from Tyr. In addition, Tyr can also be made from phenylalanine (Phe) by Phe hydroxylase (PAH) in mammalian liver cells^14. To elucidate the human 4-HMA biosynthetic pathway, the fates of ^13C9-Tyr and ^13C6-Phe were traced in human cells. […] Additionally, the generation of 4-HMA by […] would result in the incorporation of a single ^18O at the Ca position of the carboxylic acid of 4-HMA (FIG. 9A). However, this was not observed by ^18O labelling (FIG. 8B). Therefore, it was unlikely that 4-HMA biosynthesis from octopamine and tyramine catabolism occurred in the present system.
Unexpectedly, 4-HMA levels also were lower in hyperoxic (21%) conditions compared to 3% O2, reflecting either decreased production or increased consumption of this metabolite at 21% O2.
Therefore, CoQ10 was used as an indirect readout of 4-HB production. To assess the ability of human cells to biosynthesize CoQ10, cells were labelled with ^13C6-Phe or ^13C9-Tyr. CoQ10 was completely biosynthesized from Tyr, but not Phe, in human cells (FIG. 11B).
(§2) For metabolomics, briefly, cells were washed in 4° C. 0.9% saline and metabolites were extracted with 46% methanol:23% H2O:[…] chloroform that contained a labelled amino acid standard mix (MSK-A2-1.2, Cambridge Isotope Laboratories, Inc.). Enzymatic assay samples were extracted using 80% methanol: 20% H2O that contained labelled amino acid standards. Extracts were placed into 1.5 mL Eppendorf tubes, vortexed at 4° C. for 10 min and centrifuged at 4° C. for 10 min at 17,200×g in a microcentrifuge. The aqueous phase was transferred to vials for GC-MS or Eppendorf tubes for LC-MS. Polar samples were evaporated in a SpeedVac and samples were resolved by GC-MS or LC-MS. Lipid samples were dried using a stream of N2 (for ^18O labelling studies) or air. Metabolite and lipid extracts were submitted to the NYULMC Metabolomics Core Resource Laboratory.
For polar metabolomics, the LC column was a Millipore ZIC-pHILIC (2.1×150 […], 5 μm bead size) coupled to a Dionex UltiMate 3000 system. The column oven temperature was held at 25° C. The flow rate was 100 μL/min, and the injection volume was 1 μL. Buffer A was 10 mM ammonium carbonate in water, pH 9, and Buffer B was neat acetonitrile. The gradient profile was 80-20% B (0-30 min), 20-80% B (30-31 min), and 80-80% B (31-42 min). MS Analyses were carried out on a Thermo Q Exactive HF mass spectrometer using a heated electrospray ionization (HESI) source. The method duration was 30 min using a polarity-switching, top 5 method. The spray voltage for both positive and negative ion modes was 3.5 kV. The capillary temperature was 320° C. with a maximum spray current of 100 ρA. The full MS scan was carried out at 120,000 resolution with a scan range of 67-1000 m/z. For ^18O2 labelling experiments, full MS scans were carried out at 240,000 resolution at the same scan range. Tandem MS spectra were obtained at 15,000 resolution. All data were acquired in profile mode. Peak heights were analyzed using Xcalibur (ThermoFisher Scientific).
Lipid metabolomics were acquired using a Waters CSH-C18 (2.1×100 mm, 1.7 μm) column coupled to a Dionex UltiMate 3000 system. The column oven temperature was held at 55° C. The flow rate was 300 μL/min and the injection volume was 1 μL. Buffer A was 60:40 acetonitrile:water, 0.1% formic acid and Buffer B was 90:10 isopropanol:acetonitrile, 10 mM ammonium formate. […]

[3] = system: MIAPACA2 cells; assay: 18O2-GASSP labelling of MIAPACA2 cells treated with MG132, IOX1, DFO or ascorbate; type: cell-based, human
Protocol: As additional controls, MIAPACA2 cells were treated with an iron chelator (DFO, FIG. 5E-5F), a proteasome inhibitor (MG132) to induce proteotoxic stress, and physiological levels of ascorbate, an antioxidant, to determine the effects of ROS on ^18O-labelling. Labelling of ^18O γ-butyrobetaine was blocked by IOX1 and DFO, consistent with the fact that trimethyllysine hydroxylase (TMLH) is an iron-dependent dioxygenase (FIGS. 7A-7D). […] Total levels of ^18O labelled methionine sulfoxide increased upon MG132 treatment and decreased following ascorbate treatment (FIGS. 7I-7M)^10.
as §1
Next, the inlet valve was opened and the ^18O2:5% CO2:N2 gaseous mixture was flushed into the system at a rate of 2.5 L/min. Subsequently, the outlet valve was immediately opened to allow gas flow out of the chamber, and to release the pressure in the system. The chamber was injected with the ^18O2:5% CO2:N2 gaseous mixture for 1 minute before the inlet and outlet valves were closed simultaneously. The chamber was allowed to equilibrate for 5 minutes. This process was repeated seven times, or until the desired oxygen concentration was reached and was stable. For 3%, 1%, and 0.2% ^18O2 labelling studies, the chamber was infused with 5%:5%:90%, 1.5%:5%:93.5%, and 0.5%:5%:94.5% ^18O2:CO2:N2, respectively. The ^18O2-infused MIC was then placed in a 37° C., 5% CO2 tissue culture incubator for 24 hours. The oxygen concentration in the chamber was monitored regularly. Oxygen measurements after 20 hours was not feasible due to the battery life of the sensor. At the end of the experiment, the chamber was opened inside a chemical fume hood before metabolite extraction.
as §2
For polar metabolomics, the LC column was a Millipore ZIC-pHILIC (2.1×150 […], 5 μm bead size) coupled to a Dionex UltiMate 3000 system. The column oven temperature was held at 25° C. The flow rate was 100 μL/min, and the injection volume was 1 μL. Buffer A was 10 mM ammonium carbonate in water, pH 9, and Buffer B was neat acetonitrile. The gradient profile was 80-20% B (0-30 min), 20-80% B (30-31 min), and 80-80% B (31-42 min). MS Analyses were carried out on a Thermo Q Exactive HF mass spectrometer using a heated electrospray ionization (HESI) source. […]

Structure (SMILES) | IOX1 Sensitive (Yes/No) [1] | also measured
O=C(O)[C@@H]1C[C@@H](O)CN1 [Metabolite 24, Hydroxyproline] | Yes | –
C[S+](CC[C@H](N)C(=O)[O-])C[C@H]1O[C@@H](n2cnc3c(N)ncnc32)[C@H](O)[C@@H]1O (some centres unmarked) [Metabolite 41, S-adenosyl methionine] | Yes | –
O=C[C@@H](O)[C@@H](O)[C@H](O)[C@H](O)COP(=O)(O)O [Metabolite 46, D-Mannose 6-phosphate] | Yes | –
C[S+]([O-])CC[C@H](N)C(=O)O (some centres unmarked) [Metabolite 23, Methionine Sulfoxide] | Yes | –
CC(=O)N(O)CCCCCNC(=O)CCC(=O)N(O)CCCCCNC(=O)CCC(=O)N(O)CCCCCN [DFO, N-[5-[[4-[5-[acetyl(hydroxy)amino]pentylamino]-4-oxobutanoyl]-hydroxyamino]pentyl]-N′-(5-aminopentyl)-N′-hydroxybutanediamide] | – | 13C9-Tyr-derived 4-HMA ([2]; 3% 16O2, 24 hours): attenuated or ablated; also recorded: severely inhibited; CoQ10 labelling from 13C9-Tyr (incorporation of tyrosine into CoQ10) ([2]; 3% 16O2, 24 hours): eliminated; also recorded: completely blocked; 4-HPLA pools ([2]; 13C-Tyr, 3% O2, 24 hours): increased; 18O labelling of methionine ([3]; 3%, 1%, 0.2% 18O2, 24 hours): less sensitive; also recorded: only partially blocked; 18O labelling of γ-butyrobetaine ([3]; 3%, 1%, 0.2% 18O2, 24 hours): sensitive; also recorded: blocked; 18O labelling of 4-HMA ([3]; MIAPACA2, 3%, 1%, 0.2% 18O2, 24 hours, 500 μM IOX1, 250 μM DFO): sensitive; also recorded: significantly attenuated; 4-HMA levels ([3]; MIAPACA2, 18O2 labelling, 24 hours, 500 μM IOX1, 250 μM DFO, 70 μM ascorbate): significantly attenuated
O=c1ccn([C@@H]2O[C@H](COP(=O)(O)O)[C@@H](O)[C@H]2O)c(=O)[nH]1 [Metabolite 36, UMP] | Yes | –
CC(=O)N[C@H]1C(O)O[C@H](CO)[C@@H](O)[C@@H]1O (stereo partly drawn) [Metabolite 16, N-Acetyl-D-glucosamine] | No | –
CCCCC(=O)O[C@H](CC(=O)[O-])C[N+](C)(C)C [Metabolite 4, Valerylcarnitine] | Yes | –
N[C@@H](CCSC[C@H](N)C(=O)O)C(=O)O [Metabolite 42, Cystathionine] | Yes | –
CC(C)C[C@@H](C=O)NC(=O)[C@H](CC(C)C)NC(=O)[C@H](CC(C)C)NC(=O)OCc1ccccc1 [MG132] (Cbz-Leu-Leu-Leu-aldehyde) | – | Total levels of 18O labelled methionine sulfoxide ([3]; 5 μM MG132, 70 μM ascorbate, 24 hours): increased
N[C@@H](CCC(=O)O)C(=O)O [Metabolite 33, Glutamate] | Yes | –
CN(CC(=O)O)C(=N)N [Metabolite 29, Creatine] | Yes | –
CSCC[C@H](N)C(=O)O [Metabolite 13, Methionine] | Yes | –
C[N+](C)(C)CCCC(=O)[O-] [Metabolite 21, g-Butyrobetaine] | Yes | –
NC(=O)C1=CN([C@@H]2O[C@H](COP(=O)(O)OP(=O)(O)OC[C@H]3O[C@@H](n4cnc5c(N)ncnc54)[C@H](O)[C@@H]3O)[C@@H](O)[C@H]2O)C=CC1 [Metabolite 28, NADH] | Yes | –
NCCS(=O)O [Metabolite 32, Hypotaurine] | Yes | –
CC(=O)N[C@@H](CO)[C@@H](O)[C@@H](O)[C@H](O)CO [Metabolite 17, N-Acetyl-D-galactosaminitol] | Yes | –
